Laboratory results from patent US20150148234A1, “HERBICIDE-RESISTANT SUNFLOWER PLANTS WITH MULTIPLE HERBICIDE RESISTANT ALLELES OF AHASL1 AND METHODS OF USE” (NIDERA S.A., priority 2013, published 2015).
Marks after values point to notes of the source that are not given here.

What was measured:
[1] = system: sunflower hybrid H1 (L1 × L2), A205V; assay: imazapyr whole plant greenhouse test (Example 2); format: in vivo
Procedure: (§1) Seeds were sown in Petri dishes and, after germination, plantlets were transplanted to pots of 10 cm of diameter in a potting media consisting of equal parts of vermiculite, soil and sand. Plants were grown in a greenhouse under natural light conditions supplemented with 400 W sodium halide lamps to provide a 16 hr daylength. Day/night temperatures were 25 and 20 ° C., respectively. At the V2-V4 stage (Schneiter & Miller (1981) Crop Sci. 21:901-903) 10 plants of each genotype were randomly assigned to each treatment consisting of eight imazapyr doses (0, 40, 80, 160, 240, 320, 400 and 480 g ai/ha, corresponding to untreated, 0.5×, 1×, 2×, 3×, 4×, 5× and 6×, respectively), and a zero-time biomass determination. Experiment was arranged as a randomized block design with a full factorial (sunflower line×treatment) arrangement of treatments and 10 replications.
(§2) On the day of herbicide application ten plants of each genotype were cut at the cotyledonal node and dried at 60° C. for 48 hrs for zero-time dried weight determination.
(§3) The remaining plants were maintained for 14 days after imazapyr treatment (DAT) and their height, Phytotoxicity Index (PI) and above ground dry biomass were determined Height was determined as the distance between the cotyledonal node and the apex of each plant. Above ground biomass data from each line were converted to biomass accumulation after application by subtracting the appropriate average zero- time biomass from each sample. Dry biomass data were converted to percentages of the untreated control plants within each line to allow direct comparisons between groups.

[2] = system: sunflower genotypes carrying A122T (mean of H2, L3, L4); assay: imazapyr whole plant greenhouse test (Example 2); format: in vivo; settings: for Phytotoxicity Index (0-9) 14 days after treatment / biomass accumulation 14 days after treatment, % of untreated / plant height 14 days after treatment, % of untreated: A122T Mean; for height reduction: of the untreated controls
Procedure: as §1, §2, §3

sunflower line L1, A205V = assay: imazapyr whole plant greenhouse test (Example 2); format: in vivo
Procedure: as §1, §2, §3

[3] = system: sunflower genotypes A122T/A205V (mean of H3, H4); assay: imazapyr whole plant greenhouse test (Example 2); format: in vivo; settings: for Phytotoxicity Index (0-9) 14 days after treatment / biomass accumulation 14 days after treatment, % of untreated / plant height 14 days after treatment, % of untreated: A122T/A205V Mean; for height reduction: heterozygotes A122T/A205V, of the untreated controls; for reduction in biomass weight: heterozygous A122T/A205V
Procedure: as §1, §2, §3

[4] = system: sunflower hybrid H3 (L3*L2), 122/205; assay: field trial, imazapyr at V8 or R1 stage (Example 4); settings: H3 122/205

Structure (SMILES): CC(C)C1(C)N=C(c2ncccc2C(=O)O)NC1=O (centres unmarked) [imazapyr]
- Phytotoxicity Index (0-9) 14 days after treatment ([1]; dose 0.5 (0.5x, 40 g ai/ha)): 0
- biomass accumulation 14 days after treatment, % of untreated ([1]; dose 0.5 (0.5x, 40 g ai/ha)): 95.0%
- plant height 14 days after treatment, % of untreated ([1]; dose 0.5 (0.5x, 40 g ai/ha)): 99.5%
- Phytotoxicity Index (0-9) 14 days after treatment ([1]; dose 1 (1x, 80 g ai/ha)): 0
- biomass accumulation 14 days after treatment, % of untreated ([1]; dose 1 (1x, 80 g ai/ha)): 89.6%
- plant height 14 days after treatment, % of untreated ([1]; dose 1 (1x, 80 g ai/ha)): 99.5%
- Phytotoxicity Index (0-9) 14 days after treatment ([1]; dose 2 (2x, 160 g ai/ha)): 1.8
- biomass accumulation 14 days after treatment, % of untreated ([1]; dose 2 (2x, 160 g ai/ha)): 75.5%
- plant height 14 days after treatment, % of untreated ([1]; dose 2 (2x, 160 g ai/ha)): 78.6%
- Phytotoxicity Index (0-9) 14 days after treatment ([1]; dose 3 (3x, 240 g ai/ha)): 6.4
- biomass accumulation 14 days after treatment, % of untreated ([1]; dose 3 (3x, 240 g ai/ha)): 60.4%
- plant height 14 days after treatment, % of untreated ([1]; dose 3 (3x, 240 g ai/ha)): 48.4%
- Phytotoxicity Index (0-9) 14 days after treatment ([1]; dose 4 (4x, 320 g ai/ha)): 8.0
- biomass accumulation 14 days after treatment, % of untreated ([1]; dose 4 (4x, 320 g ai/ha)): 46.5%
- plant height 14 days after treatment, % of untreated ([1]; dose 4 (4x, 320 g ai/ha)): 28.9%
- Phytotoxicity Index (0-9) 14 days after treatment ([1]; dose 5 (5x, 400 g ai/ha)): 8.9
- biomass accumulation 14 days after treatment, % of untreated ([1]; dose 5 (5x, 400 g ai/ha)): 38.9%
- plant height 14 days after treatment, % of untreated ([1]; dose 5 (5x, 400 g ai/ha)): 25.3%
- Phytotoxicity Index (0-9) 14 days after treatment ([1]; dose 6 (6x, 480 g ai/ha)): 9.0
- biomass accumulation 14 days after treatment, % of untreated ([1]; dose 6 (6x, 480 g ai/ha)): 33.9%
- plant height 14 days after treatment, % of untreated ([1]; dose 6 (6x, 480 g ai/ha)): 27.1%
- Phytotoxicity Index (0-9) 14 days after treatment ([2]; dose 0.5 (0.5x, 40 g ai/ha)): 0.3
- biomass accumulation 14 days after treatment, % of untreated ([2]; dose 0.5 (0.5x, 40 g ai/ha)): 98.9%
- plant height 14 days after treatment, % of untreated ([2]; dose 0.5 (0.5x, 40 g ai/ha)): 99.9%
- Phytotoxicity Index (0-9) 14 days after treatment ([2]; dose 1 (1x, 80 g ai/ha)): 0.3
- biomass accumulation 14 days after treatment, % of untreated ([2]; dose 1 (1x, 80 g ai/ha)): 96.7* %
- plant height 14 days after treatment, % of untreated ([2]; dose 1 (1x, 80 g ai/ha)): 99.5%
- Phytotoxicity Index (0-9) 14 days after treatment ([2]; dose 2 (2x, 160 g ai/ha)): 0.3
- biomass accumulation 14 days after treatment, % of untreated ([2]; dose 2 (2x, 160 g ai/ha)): 92.2** %
- plant height 14 days after treatment, % of untreated ([2]; dose 2 (2x, 160 g ai/ha)): 98.0%
- Phytotoxicity Index (0-9) 14 days after treatment ([2]; dose 3 (3x, 240 g ai/ha)): 0.3
- biomass accumulation 14 days after treatment, % of untreated ([2]; dose 3 (3x, 240 g ai/ha)): 90.0** %
- plant height 14 days after treatment, % of untreated ([2]; dose 3 (3x, 240 g ai/ha)): 95.7* %
- Phytotoxicity Index (0-9) 14 days after treatment ([2]; dose 4 (4x, 320 g ai/ha)): 0.5
- biomass accumulation 14 days after treatment, % of untreated ([2]; dose 4 (4x, 320 g ai/ha)): 85.7** %
- plant height 14 days after treatment, % of untreated ([2]; dose 4 (4x, 320 g ai/ha)): 94.6** %
- Phytotoxicity Index (0-9) 14 days after treatment ([2]; dose 5 (5x, 400 g ai/ha)): 0.8
- biomass accumulation 14 days after treatment, % of untreated ([2]; dose 5 (5x, 400 g ai/ha)): 74.3** %
- plant height 14 days after treatment, % of untreated ([2]; dose 5 (5x, 400 g ai/ha)): 85.4** %
- Phytotoxicity Index (0-9) 14 days after treatment ([2]; dose 6 (6x, 480 g ai/ha)): 1.2
- biomass accumulation 14 days after treatment, % of untreated ([2]; dose 6 (6x, 480 g ai/ha)): 69.9** %
- plant height 14 days after treatment, % of untreated ([2]; dose 6 (6x, 480 g ai/ha)): 81.2** %
- height reduction ([2]; A122T homozygous, 0.5x): 0.1%
- height reduction ([2]; A122T homozygous, 6x): 18.8%
- reduction of biomass weight ([2]; A122T homozygous, higher dose (6x)): 25%
- Phytotoxicity Index (0-9) 14 days after treatment (sunflower line L1, A205V; dose 0.5 (0.5x, 40 g ai/ha)): 0
- biomass accumulation 14 days after treatment, % of untreated (sunflower line L1, A205V; dose 0.5 (0.5x, 40 g ai/ha)): 91.7%
- plant height 14 days after treatment, % of untreated (sunflower line L1, A205V; dose 0.5 (0.5x, 40 g ai/ha)): 100.0%
- Phytotoxicity Index (0-9) 14 days after treatment (sunflower line L1, A205V; dose 1 (1x, 80 g ai/ha)): 0
- biomass accumulation 14 days after treatment, % of untreated (sunflower line L1, A205V; dose 1 (1x, 80 g ai/ha)): 81.7%
- plant height 14 days after treatment, % of untreated (sunflower line L1, A205V; dose 1 (1x, 80 g ai/ha)): 100.0%
- Phytotoxicity Index (0-9) 14 days after treatment (sunflower line L1, A205V; dose 2 (2x, 160 g ai/ha)): 1.6
- biomass accumulation 14 days after treatment, % of untreated (sunflower line L1, A205V; dose 2 (2x, 160 g ai/ha)): 54.7%
- plant height 14 days after treatment, % of untreated (sunflower line L1, A205V; dose 2 (2x, 160 g ai/ha)): 78.9%
- Phytotoxicity Index (0-9) 14 days after treatment (sunflower line L1, A205V; dose 3 (3x, 240 g ai/ha)): 5.1
- biomass accumulation 14 days after treatment, % of untreated (sunflower line L1, A205V; dose 3 (3x, 240 g ai/ha)): 35.7%
- plant height 14 days after treatment, % of untreated (sunflower line L1, A205V; dose 3 (3x, 240 g ai/ha)): 50.0%
- Phytotoxicity Index (0-9) 14 days after treatment (sunflower line L1, A205V; dose 4 (4x, 320 g ai/ha)): 8.4
- biomass accumulation 14 days after treatment, % of untreated (sunflower line L1, A205V; dose 4 (4x, 320 g ai/ha)): 25.3%
- plant height 14 days after treatment, % of untreated (sunflower line L1, A205V; dose 4 (4x, 320 g ai/ha)): 38.1%
- Phytotoxicity Index (0-9) 14 days after treatment (sunflower line L1, A205V; dose 5 (5x, 400 g ai/ha)): 8.9
- biomass accumulation 14 days after treatment, % of untreated (sunflower line L1, A205V; dose 5 (5x, 400 g ai/ha)): 19.8%
- plant height 14 days after treatment, % of untreated (sunflower line L1, A205V; dose 5 (5x, 400 g ai/ha)): 31.8%
- Phytotoxicity Index (0-9) 14 days after treatment (sunflower line L1, A205V; dose 6 (6x, 480 g ai/ha)): 8.9
- biomass accumulation 14 days after treatment, % of untreated (sunflower line L1, A205V; dose 6 (6x, 480 g ai/ha)): 19.5%
- plant height 14 days after treatment, % of untreated (sunflower line L1, A205V; dose 6 (6x, 480 g ai/ha)): 34.7%
- Phytotoxicity Index (0-9) 14 days after treatment ([3]; dose 0.5 (0.5x, 40 g ai/ha)): 0.5
- biomass accumulation 14 days after treatment, % of untreated ([3]; dose 0.5 (0.5x, 40 g ai/ha)): 99.6%
- plant height 14 days after treatment, % of untreated ([3]; dose 0.5 (0.5x, 40 g ai/ha)): 99.4%
- Phytotoxicity Index (0-9) 14 days after treatment ([3]; dose 1 (1x, 80 g ai/ha)): 0.5
- biomass accumulation 14 days after treatment, % of untreated ([3]; dose 1 (1x, 80 g ai/ha)): 98.9%
- plant height 14 days after treatment, % of untreated ([3]; dose 1 (1x, 80 g ai/ha)): 98.3%
- Phytotoxicity Index (0-9) 14 days after treatment ([3]; dose 2 (2x, 160 g ai/ha)): 0.5
- biomass accumulation 14 days after treatment, % of untreated ([3]; dose 2 (2x, 160 g ai/ha)): 93.2** %
- plant height 14 days after treatment, % of untreated ([3]; dose 2 (2x, 160 g ai/ha)): 98.3%
- Phytotoxicity Index (0-9) 14 days after treatment ([3]; dose 3 (3x, 240 g ai/ha)): 0.5
- biomass accumulation 14 days after treatment, % of untreated ([3]; dose 3 (3x, 240 g ai/ha)): 89.5** %
- plant height 14 days after treatment, % of untreated ([3]; dose 3 (3x, 240 g ai/ha)): 96.9%
- Phytotoxicity Index (0-9) 14 days after treatment ([3]; dose 4 (4x, 320 g ai/ha)): 0.5
- biomass accumulation 14 days after treatment, % of untreated ([3]; dose 4 (4x, 320 g ai/ha)): 86.4** %
- plant height 14 days after treatment, % of untreated ([3]; dose 4 (4x, 320 g ai/ha)): 93.5** %
- Phytotoxicity Index (0-9) 14 days after treatment ([3]; dose 5 (5x, 400 g ai/ha)): 0.6
- biomass accumulation 14 days after treatment, % of untreated ([3]; dose 5 (5x, 400 g ai/ha)): 75.4** %
- plant height 14 days after treatment, % of untreated ([3]; dose 5 (5x, 400 g ai/ha)): 76.3** %
- Phytotoxicity Index (0-9) 14 days after treatment ([3]; dose 6 (6x, 480 g ai/ha)): 1
- biomass accumulation 14 days after treatment, % of untreated ([3]; dose 6 (6x, 480 g ai/ha)): 67.5** %
- plant height 14 days after treatment, % of untreated ([3]; dose 6 (6x, 480 g ai/ha)): 61.8** %
- height reduction ([3]; 0.5x): 0.6%
- height reduction ([3]; 6x): 38.2%
- reduction in biomass weight ([3]; 0.5x): 0.3%
- reduction in biomass weight ([3]; 6x): 33%
- Mean Phytotoxicity Index (0-50) ([4]; 160 g ai/ha applied at R1, 14 DAT): 4.3
- Mean Phytotoxicity Index (0-50) ([4]; 160 g ai/ha applied at R1, 21 DAT): 0.7
- Mean Phytotoxicity Index (0-50) ([4]; 160 g ai/ha applied at V8, 14 DAT): 3
- Mean Phytotoxicity Index (0-50) ([4]; 160 g ai/ha applied at V8, 21 DAT): 0
